According to DBAASP:
Values after ≈ are worked out from the molar mass of the structure shown. One block for each molecule: values may come before it.

Experiments:
Assay in all cases: ≥ marks a high value that may be exact or a test limit, other limits are often not marked, values filed in µg/mL are converted to µM
[1] = system: Xanthomonas axonopodis pv. phaseoli ATCC 9563
Pseudomonas syringae = system: Pseudomonas syringae
[2] = system: Staphylococcus aureus NCTC 10788
[3] = system: Escherichia coli NCTC 10418
[4] = system: Staphylococcus aureus ATCC 12493
[5] = system: Candida albicans NCPF 1467
Escherichia coli = system: Escherichia coli
Staphylococcus aureus MR = system: Staphylococcus aureus MR
[6] = system: Staphylococcus epidermidis
Staphylococcus aureus = system: Staphylococcus aureus
Bacillus subtilis = system: Bacillus subtilis
Enterococcus faecalis VR = system: Enterococcus faecalis VR
Pseudomonas aeruginosa = system: Pseudomonas aeruginosa
Salmonella typhimurium = system: Salmonella typhimurium

- MIC [1]: 2 µM (≈ 6.09 µg/mL)
- MIC (Pseudomonas syringae): 8 µM (≈ 24.3 µg/mL)
SMILES: CC[C@H](C)[C@H](NC(=O)[C@H](CCCCN)NC(=O)[C@H](CC(N)=O)NC(=O)[C@H](CCCCN)NC(=O)[C@H](CC(C)C)NC(=O)[C@H](Cc1ccc(O)cc1)NC(=O)[C@H](CCC(N)=O)NC(=O)[C@H](CCCN=C(N)N)NC(=O)[C@@H](NC(=O)[C@@H](NC(=O)[C@H](CCCCN)NC(=O)[C@H](CCCCN)NC(=O)CNC(=O)[C@H](C)N)[C@@H](C)O)[C@@H](C)CC)C(=O)N[C@@H](CCCCN)C(=O)N[C@@H](CCCCN)C(=O)N[C@@H](CCCCN)C(=O)NCC(=O)N[C@@H](CCCN=C(N)N)C(=O)N[C@@H](CCCCN)C(=O)N[C@@H](Cc1c[nH]c2ccccc12)C(=O)N[C@H](C(=O)N[C@H](C(=O)N[C@@H](C)C(=O)N[C@@H](Cc1c[nH]c2ccccc12)C(=O)O)[C@@H](C)CC)C(C)C [AGKKTIRQYLKNKIKKKGRKWVIAW]

- MIC [2]: 16 µM (≈ 36.2 µg/mL)
- MIC [3]: ≥ 512 µM
- MIC [4]: 16 µM (≈ 36.2 µg/mL)
- MIC [5]: 16 µM (≈ 36.2 µg/mL)
SMILES: CC(C)C[C@H](NC(=O)[C@H](CC(C)C)NC(=O)[C@H](CC(C)C)NC(=O)[C@@H]1CCCN1C(=O)[C@H](CC(C)C)NC(=O)[C@@H](N)Cc1ccccc1)C(=O)N[C@@H](C)C(=O)NCC(=O)N[C@@H](CC(C)C)C(=O)N1CCC[C@H]1C(=O)N[C@@H](CCCCN)C(=O)N[C@@H](Cc1ccccc1)C(=O)N[C@@H](CC(C)C)C(=O)N[C@H]1CSSC[C@@H](C(=O)O)NC(=O)[C@H](CCCCN)NC(=O)[C@H](CCCCN)NC(=O)[C@H](Cc2ccccc2)NC(=O)[C@H](C(C)C)NC(=O)[C@H](CC(C)C)NC1=O [FLPLLLAGLPKFLCLVFKKC]

- MIC (Escherichia coli): 1 µM (≈ 2.47 µg/mL)
- MIC (Staphylococcus aureus MR): 0.707 µM (≈ 1.75 µg/mL)
- MIC [6]: 2 µM (≈ 4.95 µg/mL)
- MIC (Staphylococcus aureus): 1 µM (≈ 2.47 µg/mL)
- MIC (Bacillus subtilis): 0.5 µM (≈ 1.24 µg/mL)
- MIC (Enterococcus faecalis VR): 1 µM (≈ 2.47 µg/mL)
- MIC (Pseudomonas aeruginosa): 2 µM (≈ 4.95 µg/mL)
- MIC (Salmonella typhimurium): 0.5 µM (≈ 1.24 µg/mL)
SMILES: CC(C)C[C@H](NC(=O)CNC(=O)[C@H](C)NC(=O)[C@H](CCCN=C(N)N)NC(=O)[C@H](CO)NC(=O)[C@H](CO)NC(=O)[C@H](CCCN=C(N)N)NC(=O)[C@@H](N)[C@@H](C)O)C(=O)N[C@@H](CCC(N)=O)C(=O)N[C@@H](Cc1c[nH]c2ccccc12)C(=O)N1CCC[C@H]1C(=O)N[C@H](C(=O)NCC(=O)N[C@@H](CCCN=C(N)N)C(=O)N[C@H](C(=O)N[C@@H](Cc1cnc[nH]1)C(=O)N[C@@H](CCCN=C(N)N)C(=O)N[C@@H](CC(C)C)C(=O)N[C@@H](CC(C)C)C(=O)N[C@@H](CCCN=C(N)N)C(=O)N[C@@H](CCCCN)C(=O)O)C(C)C)C(C)C [TRSSRAGLQWPVGRVHRLLRK]
